Reference: patent publication US20260184687A1, “DIHYDROINDENE DERIVATIVES AS MALT1 INHIBITORS” (C4X Discovery Limited, priority 2022, published 2026)

How the values were obtained:
[1] = molecular target: MALT1-GS-Ub (6-His-hMALT-1 residues 339-715 fused to ubiquitin) (Homo sapiens, UniProt Q9UDY8); experiment: biochemical;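 also: in vitro MALT1 protease assay: enzyme preincubated with compound 30 min at room temperature, then cleavage of fluorogenic Ac-LVSR-AMC substrate (100 µM) followed by fluorescence every 15 min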
Sequence of MALT1-GS-Ub (6-His-hMALT-1 residues 339-715 fused to ubiquitin) (Q9UDY8 with tags, fused parts or gaps limits assumed): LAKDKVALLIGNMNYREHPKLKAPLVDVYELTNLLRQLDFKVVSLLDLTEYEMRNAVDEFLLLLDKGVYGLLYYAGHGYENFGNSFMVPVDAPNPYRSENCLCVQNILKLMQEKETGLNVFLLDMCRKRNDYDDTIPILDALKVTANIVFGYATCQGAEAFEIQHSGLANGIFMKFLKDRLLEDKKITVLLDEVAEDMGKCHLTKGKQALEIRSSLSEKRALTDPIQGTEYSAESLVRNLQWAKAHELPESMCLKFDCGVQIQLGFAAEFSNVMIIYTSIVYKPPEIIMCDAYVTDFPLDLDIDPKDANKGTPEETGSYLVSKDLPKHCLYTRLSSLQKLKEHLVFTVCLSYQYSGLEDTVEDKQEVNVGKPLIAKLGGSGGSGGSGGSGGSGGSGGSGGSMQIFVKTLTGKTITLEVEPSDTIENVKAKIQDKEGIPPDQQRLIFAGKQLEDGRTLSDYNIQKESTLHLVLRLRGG
Procedure: (§1) MALT1 protease activity was assessed in vitro by measuring the cleavage of a fluorogenic tetrapeptide substrate.
A protein (MALT1-GS-Ub) comprising 6-His-hMALT-1 (residues 339-715), fused to ubiquitin with an 8×GGS linker, was expressed in E. coli, and purified using chitin resin to remove contaminants followed by affinity chromatography purification and size-exclusion chromatography, according to standard protocols.
Briefly, MALT1-GS-Ub (300-600 nM) was incubated with substrate (Ac-LVSR-AMC, 100 μM) in reaction buffer comprising 50 mM HEPES (pH7.0), 25 mM KCl, 0.1% (v/v) CHAPS and 1 mM TCEP.
(§2) Test compounds dissolved in DMSO were dispensed into assay plates (384-well, black, shallow ProxiPlates). 7 μl enzyme solution was added and incubated at room temperature for 30 minutes to allow compound binding to occur. 2 μl substrate solution was then added and the fluorescence (excitation 360 nm, emission 460 nm) read every 15 minutes using a suitable plate reader. Final assay DMSO concentration was 1%. […] IC50 values were calculated using GraphPad Prism using a 4-parameter non-linear regression curve fit.

FL hMALT1 enzyme = molecular target: T1, FL hMALT1 enzyme (Homo sapiens, UniProt Q9UDY8); experiment: biochemical;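 also: Cell-free protease assay: enzyme preincubated with compound 30 min at room temperature, then cleavage of fluorogenic Ac-LVSR-AMC substrate (100 µM) tracked by fluorescence (ex 360/em 460 nm)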
T1 sequence (Q9UDY8 1-824): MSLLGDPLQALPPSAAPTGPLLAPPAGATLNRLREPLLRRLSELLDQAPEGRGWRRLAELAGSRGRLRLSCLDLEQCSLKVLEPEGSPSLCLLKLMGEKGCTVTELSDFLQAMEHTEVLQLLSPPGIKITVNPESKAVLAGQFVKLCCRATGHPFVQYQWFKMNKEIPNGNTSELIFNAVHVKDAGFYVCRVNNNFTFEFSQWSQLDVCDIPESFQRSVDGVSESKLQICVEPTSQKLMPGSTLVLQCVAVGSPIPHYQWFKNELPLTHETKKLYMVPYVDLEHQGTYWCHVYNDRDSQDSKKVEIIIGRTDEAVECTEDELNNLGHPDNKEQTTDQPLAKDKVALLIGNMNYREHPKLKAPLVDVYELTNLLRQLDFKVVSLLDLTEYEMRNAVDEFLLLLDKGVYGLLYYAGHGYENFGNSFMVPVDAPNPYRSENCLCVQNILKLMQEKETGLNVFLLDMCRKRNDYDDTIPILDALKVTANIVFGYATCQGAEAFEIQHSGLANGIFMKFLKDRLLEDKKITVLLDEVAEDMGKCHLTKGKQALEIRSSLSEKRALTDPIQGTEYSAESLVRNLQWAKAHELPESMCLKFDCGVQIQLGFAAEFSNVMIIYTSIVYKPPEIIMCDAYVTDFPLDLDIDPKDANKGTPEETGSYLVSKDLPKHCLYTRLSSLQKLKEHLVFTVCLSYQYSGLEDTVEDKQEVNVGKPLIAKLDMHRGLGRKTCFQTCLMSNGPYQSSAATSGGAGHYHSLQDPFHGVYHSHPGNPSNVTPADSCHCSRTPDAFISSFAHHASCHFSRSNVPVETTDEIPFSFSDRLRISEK
Procedure: as §1
For a higher sensitivity assay, commercially available FL hMALT1 enzyme (Abcam, 1-10 nM) was incubated with substrate (Ac-LVSR-AMC, 100 μM) in reaction buffer comprising 50 mM HEPES (pH7.0), 25 mM KCl, 0.1% (v/v) CHAPS, 1 mM TCEP and 0.7 M sodium citrate.
as §2

[2] = test system: IL-2 release from stimulated Jurkat cells; experiment: Human IL-2 Release Phenotypic Assay (Assay 3); format: cell-based; conditions: Jurkat cells (clone E6-1), 200 ng/mL PMA + 300 ng/mL ionomycin, IL-2 by ELISA
Procedure, shortened: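 Jurkat E6-1 cells in RPMI1640/10% FBS were seeded at 50 000 cells/well and incubated overnight at 37° C. Half-log compound dilutions (0.5% final DMSO) were added for 30 min, then cells were stimulated with 200 ng/mL PMA + 300 ng/mL ionomycin for 48 h. IC50 came from a 4-parameter non-linear regression fit.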

Structure (SMILES)	IC50 [1]	IC50 (FL hMALT1 enzyme)	IC50 ([2]; Homo sapiens, Jurkat, 48 h)	IC50 ([2]; 48 hours)
CC1c2ccccc2CC1Nc1ccc(C(N(C)C(=O)C2CCS(=O)(=O)CC2)C(F)(F)F)cc1 (mixture of isomers) [Example 8, N-Methyl-N—((S)-2,2,2-trifluoro-1-(4-(((1,2-cis)-1-methyl-2,3-dihydro-1H-inden-2-yl)amino)phenyl)ethyl)tetrahydro-2H-thiopyran-4-carboxamide 1,1-dioxide]	200 nM	39 nM	150 nM	–
CN(C(=O)C1CCS(=O)(=O)CC1)[C@@H](c1ccc(NC2Cc3ccccc3C2(C)C)cc1)C(F)(F)F (single isomer, unassigned) [Example 1]	140 nM	7 nM	430 nM	–
CN(C(=O)c1cnco1)[C@@H](c1ccc(NC2Cc3ccccc3C2(C)C)cc1)C(F)(F)F (single isomer, unassigned) [Example 5]	140 nM	250 nM	–	2250 nM
CC(=O)N1CC(C(=O)N(C)[C@@H](c2ccc(NC3Cc4ccccc4C3(C)C)cc2)C(F)(F)F)C1 (single isomer, unassigned) [Example 6]	150 nM	16 nM	–	320 nM
CC(=O)N1CC(C(=O)N(C)[C@@H](c2ccc(NC3Cc4ccccc4C3(C)C)cc2)C(F)(F)F)C1 (single isomer, unassigned) [Example 7]	190 nM	68 nM	–	820 nM
COC1c2ccccc2CC1Nc1ccc([C@H](N(C)C(=O)C2CCS(=O)(=O)CC2)C(F)(F)F)cc1 (single isomer, unassigned) [Example 10]	540 nM	120 nM	1550 nM	–
CN(C(=O)N1CCOCC1)[C@@H](c1ccc(N[C@H]2Cc3ccccc3C2(C)C)cc1)C(F)(F)F (single isomer, unassigned) [Example 12]	180 nM	290 nM	490 nM	–
CN(C(=O)N1CCOCC1)[C@@H](c1ccc(N[C@@H]2Cc3ccccc3C2(C)C)cc1)C(F)(F)F (single isomer, unassigned) [Example 13]	400 nM	400 nM	1930 nM	–
CN(C(=O)N1CCS(=O)(=O)CC1)[C@@H](c1ccc(NC2Cc3ccccc3C2(C)C)cc1)C(F)(F)F (single isomer, unassigned) [Example 14]	220 nM	110 nM	–	320 nM
CN(C(=O)N1CCS(=O)(=O)CC1)[C@@H](c1ccc(NC2Cc3ccccc3C2(C)C)cc1)C(F)(F)F (single isomer, unassigned) [Example 15]	290 nM	420 nM	–	3100 nM
CN(C(=O)C1CCOCC1)[C@@H](c1ccc(NC2Cc3ccccc3C2(C)C)cc1)C(F)(F)F (single isomer, unassigned) [Example 18]	330 nM	120 nM	–	520 nM
CN(C(=O)C1CCOCC1)[C@@H](c1ccc(NC2Cc3ccccc3C2(C)C)cc1)C(F)(F)F (single isomer, unassigned) [Example 19]	170 nM	30 nM	–	110 nM
CN(C(=O)c1cc[nH]c(=O)c1)[C@@H](c1ccc(NC2Cc3ccccc3C2(C)C)cc1)C(F)(F)F (single isomer, unassigned) [Example 20]	210 nM	240 nM	510 nM	–
CN(C(=O)c1cc[nH]c(=O)c1)[C@@H](c1ccc(NC2Cc3ccccc3C2(C)C)cc1)C(F)(F)F (single isomer, unassigned) [Example 21]	200 nM	62 nM	–	260 nM
CN(C(=O)N1CCC(O)CC1)[C@@H](c1ccc(NC2Cc3ccccc3C2(C)C)cc1)C(F)(F)F (single isomer, unassigned) [Example 22]	290 nM	450 nM	1730 nM	–
CN(C(=O)N1CCC(O)CC1)[C@@H](c1ccc(NC2Cc3ccccc3C2(C)C)cc1)C(F)(F)F (single isomer, unassigned) [Example 23]	390 nM	330 nM	–	1080 nM
CC(=O)NCCC(=O)N(C)[C@@H](c1ccc(NC2Cc3ccccc3C2(C)C)cc1)C(F)(F)F (single isomer, unassigned) [Example 24]	160 nM	89 nM	–	870 nM
CN(C(=O)c1cocn1)[C@@H](c1ccc(NC2Cc3ccccc3C2(C)C)cc1)C(F)(F)F (single isomer, unassigned) [Example 26]	360 nM	700 nM	–	910 nM

Structure (SMILES)	IC50 [1]	IC50 (FL hMALT1 enzyme)	IC50 ([2]; Homo sapiens, Jurkat, 48 h)	IC50 ([2]; 48 hours)
CN(C(=O)c1cocn1)[C@@H](c1ccc(NC2Cc3ccccc3C2(C)C)cc1)C(F)(F)F (single isomer, unassigned) [Example 27]	190 nM	180 nM	–	400 nM
COCC(=O)N(C)[C@@H](c1ccc(NC2Cc3ccccc3C2(C)C)cc1)C(F)(F)F (single isomer, unassigned) [Example 28]	290 nM	200 nM	–	2610 nM
COCC(=O)N(C)[C@@H](c1ccc(NC2Cc3ccccc3C2(C)C)cc1)C(F)(F)F (single isomer, unassigned) [Example 29]	160 nM	14 nM	–	690 nM
CN(C(=O)CO)[C@@H](c1ccc(NC2Cc3ccccc3C2(C)C)cc1)C(F)(F)F (single isomer, unassigned) [Example 31]	130 nM	50 nM	1190 nM	–
COCCC(=O)N(C)[C@@H](c1ccc(NC2Cc3ccccc3C2(C)C)cc1)C(F)(F)F (single isomer, unassigned) [Example 32]	200 nM	130 nM	–	5680 nM
COCCC(=O)N(C)[C@@H](c1ccc(NC2Cc3ccccc3C2(C)C)cc1)C(F)(F)F (single isomer, unassigned) [Example 33]	360 nM	260 nM	–	2480 nM
CN(C(=O)CCO)[C@@H](c1ccc(NC2Cc3ccccc3C2(C)C)cc1)C(F)(F)F (single isomer, unassigned) [Example 34]	170 nM	85 nM	4980 nM	–
CN(C(=O)CCO)[C@@H](c1ccc(NC2Cc3ccccc3C2(C)C)cc1)C(F)(F)F (single isomer, unassigned) [Example 35]	290 nM	27 nM	–	3760 nM
CN(C(=O)C1CCS(=O)(=O)CC1)[C@@H](c1ccc(NC2Cc3ccccc3C2(C)C)nc1)C(F)(F)F (single isomer, unassigned) [Example 36]	380 nM	39 nM	–	1160 nM
CC(=O)NCC(=O)N(C)[C@@H](c1ccc(NC2Cc3ccccc3C2(C)C)cc1)C(F)(F)F (single isomer, unassigned) [Example 39]	240 nM	170 nM	–	3590 nM
CC(=O)NCC(=O)N(C)[C@@H](c1ccc(NC2Cc3ccccc3C2(C)C)cc1)C(F)(F)F (single isomer, unassigned) [Example 40]	230 nM	77 nM	–	1350 nM
CC(=O)N1CC(C)(C(=O)N(C)[C@@H](c2ccc(NC3Cc4ccccc4C3(C)C)cc2)C(F)(F)F)C1 (single isomer, unassigned) [Example 41]	220 nM	19 nM	1040 nM	–
CC(=O)N1CC(C)(C(=O)N(C)[C@@H](c2ccc(NC3Cc4ccccc4C3(C)C)cc2)C(F)(F)F)C1 (single isomer, unassigned) [Example 42]	160 nM	35 nM	–	1600 nM
CC(=O)N1CC(F)(C(=O)N(C)[C@@H](c2ccc(NC3Cc4ccccc4C3(C)C)cc2)C(F)(F)F)C1 (single isomer, unassigned) [Example 43]	150 nM	62 nM	–	4040 nM
CC(=O)N1CC(F)(C(=O)N(C)[C@@H](c2ccc(NC3Cc4ccccc4C3(C)C)cc2)C(F)(F)F)C1 (single isomer, unassigned) [Example 44]	180 nM	21 nM	–	770 nM
CN(C(=O)CN1CCCC1=O)[C@@H](c1ccc(NC2Cc3ccccc3C2(C)C)cc1)C(F)(F)F (single isomer, unassigned) [Example 45]	240 nM	180 nM	730 nM	–
CN(C(=O)CN1CCCC1=O)[C@@H](c1ccc(NC2Cc3ccccc3C2(C)C)cc1)C(F)(F)F (single isomer, unassigned) [Example 46]	250 nM	66 nM	–	440 nM
